From US7605137B2, “Combination therapy comprising cloretazine” (priority 2004, dated 2009)
Entries after “also recorded” stand apart in the source; their conditions may differ. Where two headings read alike, the source gives them in different places.

Tests used:
L1210 leukemia [1] = assay: In vivo antitumor activity of VNP40101M and fludarabine on ip L1210 leukemia (3×10^6 cells), survival; set-up: species or system CD2F1 mice; conditions: 3×10^6 L1210 cells ip; for Long-term Survivors (%): survival more than 60 days
Procedure: Eighty Female Balb/c×DBA/2 (CD2F1) mice are inoculated intraperitoneally (ip) on day 0 with 3×10^6 L1210 cells in 0.2 mL phosphate-buffered-saline (PBS). The mice are randomly divided into 6 groups; each group consists of 10 mice. The animals are untreated or treated with a single bolus dose of VNP40101M at 5, or 10 mg/kg, ip, on day 1 with or without fludarabine (70 mg/kg, ip) on multiple days between days 1 to 9. During the experiments, mice are observed daily for survival. It is determined that mice that survive for more than 60 days after inoculation of L1210 cells might be regarded as long-term survivors. Kaplan-Meier plots are generated, and survival time of animals is analyzed using student T-test. Significance is defined as P<0.05.

L1210 leukemia [2] = assay: In vitro cytotoxicity of VNP40101M and AraC, cell viability assay (mitochondrial oxidoreductase activity); format: cell-based, murine; conditions: AraC and VNP40101M 0.75-6 uM
Procedure: The cytotoxicity of the combination of VNP40101M and Arac on L1210 leukemia was examined using a cell viability assay. Cells were exposed to VNP40101M, alone or in combination with various concentrations of AraC. After 72 hours, the remaining viable cells were quantified by measuring mitochondrial oxidoreductase activity. Concentrations of AraC and VNP40101M used were between 0.75 and 6 uM. Dose-effect analyses (combination index) showing combination effects of VNP40101M and AraC were analyzed.

L1210 leukemia [3] = assay: In vivo antitumor activity of VNP40101M and AraC on ip L1210 leukemia (1×10^6 cells), survival; set-up: species or system CD2F1 mice; conditions: 1×10^6 L1210 cells ip; for Long-term Survivors (%): survival more than 60 days
Procedure: Eighty Female Balb/c×DBA/2 (CD2F1) mice were inoculated intraperitoneally (ip) on day 0 with 1×10^6 L1210 cells in 0.2 mL phosphate-buffered-saline (PBS). The mice were randomly divided into 6 groups; each group consisted of 10 mice. The animals were untreated or treated with a single bolus dose of VNP40101M at 5, or 10 mg/kg, ip, on day 1 with or without AraC (50 mg/kg, ip) on days 1, 3, 5, 7, and 9. Daring the experiments, mice were observed daily for survival. It was determined that mice that survive for more than 60 days after inoculation of L1210 cells might be regarded as long-term survivors. Kaplan-Meier plots were generated, and survival time of animals was analyzed using student T-test. Significance was defined as P<0.05.

[4] = system: L1210 leukemia (10^6 tumor cells) resistant to BCNU, cyclophosphamide, or melphalan; conditions: cited from earlier work
human U251 glioma = conditions: 10 mg/kg q2d×11 or 20 mg/kg q4d×6 IP; tumors staged to ~300 mg; cited from earlier work
[5] = system: murine M109 lung carcinoma; conditions: cited from earlier work
B16F10 melanoma = conditions: weekly IP, 10-60 mg/kg; cited from earlier work
[6] = system: human HTB177 lung (H460) carcinoma; conditions: weekly IP, 10-60 mg/kg; cited from earlier work
[7] = system: human WiDr colon carcinoma; conditions: weekly IP, 10-60 mg/kg; cited from earlier work
[8] = system: intra-cranially implanted L1210 leukemia; conditions: cited from earlier work
[9] = cited from earlier work
[10] = cited from earlier work; remark: listed apart in the source
[11] = cited from earlier work; remark: listed apart in the source
[12] = cited from earlier work; remark: listed apart in the source
[13] = system: advanced hematologic malignancies; conditions: cited from earlier work
[14] = VNP40101M 5 mg/kg ip single bolus day 1
[15] = VNP40101M 10 mg/kg ip single bolus day 1
[16] = single dose 80-100 mg/kg IP, tumor-bearing mice

In the case of `Nc1nc(F)nc2c1ncn2[C@@H]1O[C@H](CO)[C@@H](O)[C@@H]1O` [Fluda, Fludarabine, reference compound], the “Long-term Survivors (%)” value (L1210 leukemia [1]; fludarabine 70 mg/kg ip multiple days between days 1 to 9) is reported as 0% and the “Time to death of all animals” value (L1210 leukemia [1]; fludarabine treatment control, 70 mg/kg ip) is reported as ≤ 30 days.
In the case of `CNC(=O)N(N(CCCl)S(C)(=O)=O)S(C)(=O)=O` [VNP40101M, 1,2-Bis(methylsulfonyl)-1-(2-chloroethyl)-2-(methylaminocarbonyl) hydrazine], the “Combination effect with AraC on L1210 leukemia” value (L1210 leukemia [2]) is reported as “worked synergistically with AraC”, the “Long-term Survivors (%)” value (L1210 leukemia [3]; [14]) is reported as 50% and the “Long-term Survivors (%)” value (L1210 leukemia [3]; [15]) is reported as 90%. The “Long-term Survivors (%)” value (L1210 leukemia [1]; [14]) was 0%, the “Long-term Survivors (%)” value (L1210 leukemia [1]; [15]) was 40% and the “Increase in life span compared to control mice” value ([4]; 6 mg/kg/d IP daily for 6 days (total dose 36 mg/kg)) was 333%. For the same compound, the Cure ([4]; 12-18 mg/kg/d IP daily for 6 days (total doses 72-108 mg/kg)) was 100 % of animals, the Delayed toxic deaths ([4]; d×6 schedule, total doses up to 108 mg/kg) was “not observed” and the “Myelosuppression at doses producing long-term survival” value ([4]; non-tumor-bearing mice) was “only modestly myelosuppressive”. For the same compound, the “Time of toxic deaths after treatment” value [4, 16] was > 50 days, the “Toxicity of higher single doses” value [4, 16] was “signs of a wasting condition and death in some animals; also recorded: signs of a wasting condition and deaths” and the “Cure (survival ≧60 days)” value ([4]; single dose IP 24 hours after tumor inoculation, 20-60 mg/kg (60-180 mg/m^2)) was 100 % of mice. The Tumor response (human U251 glioma) was “complete regressions”, the Tumor growth ([5]; 10 mg/kg q2d×10 or 20 mg/kg q4d×5 IP, tumors staged to ~150 mg) was “delayed tumor growth” and the “Delay of time to reach 1 gram” value ([5]; 20 mg/kg q4d×5 IP) was 14 days. For the same compound, the Tumor growth (B16F10 melanoma) was “significant delays in tumor growth”, the Tumor growth [6] was “significant delays in tumor growth” and the Tumor growth [7] was “significant delays in tumor growth”. The “Anti-tumor activity against intra-cranially implanted L1210 leukemia” value ([8]; IP administration) was “Substantial anti-tumor activity”, the “Crossing the blood brain barrier” value ([8]; inferred from activity against intra-cranially implanted leukemia) was “good penetration through the blood-brain barrier; also recorded: effective in crossing the blood brain barrier” and the “Cell kill of leukemia cells implanted intracranially” value ([8]; leukemia cells implanted intracranially) was > 6.54 log cell kill. For the same compound, the “White blood cell count” value ([9]; 60 mg/kg, by day 4) was “approximately 25 % of baseline”, the “White blood cell count” value ([9]; 80 mg/kg, by day 4) was ~15 % of baseline and the WBC recovery ([9]; 60-80 mg/kg) was “full recovery by day 21”. The “White blood cell count” value ([9]; single IP dose 40 mg/kg (120 mg/m^2)) was 50 % of baseline, the “Clinical signs or symptoms” value ([10]; 3 mg/kg (18 mg/m^2) IV d×5, day 15) was “no clinical signs or symptoms” and the “Rats with lung findings” value ([10]; 3 mg/kg IV d×5, day 29) was 2/10. For the same compound, the “Microscopic findings (lung)” value ([10]; 3 mg/kg IV d×5) was “alveolar edema, congestion, alveolar histiocytosis, and vascular thrombi”, the Gross necropsy findings ([10]; 10 mg/kg (60 mg/m^2) d×5, day 15) was “few significant gross necropsy findings” and the “Effects on serum chemistries” value ([10]; 10 mg/kg dose group, day 29) was “decreases in total protein and albumin”. For the same compound, the “Animals with thoracic cavity fluid” value ([10]; 10 mg/kg d×5, sacrificed on day 29) was “approximately 50 % of animals”, the “Animals with thoracic cavity fluid” value ([10]; 10 mg/kg d×5, sacrificed on days 30/31) was 6/6 and the Myelosuppression ([10]; doses as high as 10 mg/kg d×5) was “not observed”. For the same compound, the “Clinical signs and symptoms” value ([11]; 1 mg/kg (20 mg/m^2) IV d×5) was “minimal clinical signs and symptoms”, the Leukopenia ([11]; 1 mg/kg IV d×5, recovered to baseline by day 15) was “mild leukopenia on day 8” and the Leukopenia ([11]; 3 mg/kg IV d×5) was “marked leukopenia by day 8”. The Clinical signs ([11]; 3 mg/kg IV d×5, sacrifice on day 8) was “marked clinical signs”, the Tolerability ([11]; single IV doses 1 and 3 mg/kg, at least 21 days of observation) was “well-tolerated” and the Clinical signs ([11]; single IV doses 10 and 30 mg/kg (200 and 600 mg/m^2)) was “marked clinical signs”. The Dose-limiting non-hematologic toxicities ([12]; 3-305 mg/m^2) was “No dose-limiting non-hematologic toxicities were observed”, the “Maximum tolerated dose (MTD)” value ([12]; IV infusion over 15-30 minutes every 4-6 weeks) was 305 mg/m^2 and the Platelet nadir ([12]; MTD 305 mg/m^2) was 25 to 33 days. The “Patients with grade 3 thrombocytopenia” value ([12]; among seven patients treated at the MTD (305 mg/m^2)) was “six”, the “Recovery of hematologic toxicities to ≦ grade 1” value ([12]; human, in vivo) was 32-45 days and the “Patients with ≧grade 2 granulocytopenia” value ([12]; patients treated at the MTD (305 mg/m^2)) was “Five”. The Clinical response ([13]; 220 mg/m^2, heavily pre-treated patient with AML) was “substantial clearing of marrow blasts”, the Clinical response ([13]; 300 mg/m^2 single course, one previously untreated patient with high-risk myelodysplasia) was “complete response by day 28” and the Clinical response ([13]; 532 mg/M^2, patient with AML, by day 28) was “reduction in marrow blasts”. For the same compound, the “Duration of prolonged marrow aplasia” value ([13]; 708 mg/m^2, one of seven patients) was > 80 days, the Peripheral blood blasts ([13]; all dose levels (220-708 mg/m^2)) was “reduced peripheral blood blasts at least transiently in most patients” and the Infusion-related reaction ([13]; doses ≧400 mg/m2) was “transient infusion-related syndrome”. The Dose-limiting non-hematologic toxicities ([13]; through the dose of 708 mg/m^2) was “no dose-limiting non-hematologic toxicities were observed”.
With `Nc1ccn([C@@H]2O[C@H](CO)[C@@H](O)[C@@H]2O)c(=O)n1` [AraC, Cytarabine, reference compound] the “Long-term Survivors (%)” value (L1210 leukemia [3]; AraC 50 mg/kg ip days 1, 3, 5, 7, 9) was 0% and the “Time to death of all animals” value (L1210 leukemia [3]; AraC treatment control, 50 mg/kg ip days 1, 3, 5, 7, 9) was ≤ 30 days.
